Literature values as cited in patent US20210360917A1, “CUTICLE SUPPLEMENT FOR PLANT PRODUCTION” (OREGON STATE UNIVERSITY, priority 2018, published 2021).

Test system: spotted wing Drosophila
Settings: chemical alternative, source not given

In the case of CCOC(=O)CC(SP(=S)(OC)OC)C(=O)OCC (stereo not shown) [malathion], the “reduction of egg laying” value is given as “about 50%”.
